# Values of other authors in patent publication US12291505B2, “Methods for the synthesis of deuterated dextromethorphan” (AVANIR PHARMACEUTICALS, INC., priority 2016, dated 2025).
# Assays:
# [1] = co-administered with dextromethorphan
# uptake of norepinephrine = details: read-out: Ki, inhibition of uptake of norepinephrine
# [2] = target: N-methyl-D-aspartate (NMDA) receptor; details: weak uncompetitive antagonist
# [3] = target: norepinephrine transporter (Homo sapiens, UniProt P23975); details: read-out: Ki, norepinephrine transporter affinity
# sigma-1 = sigma-1 (Homo sapiens, UniProt Q99720); details: read-out: Ki, sigma-1; sigma-1 agonist
# Sequence of sigma-1 (Q99720 whole entry): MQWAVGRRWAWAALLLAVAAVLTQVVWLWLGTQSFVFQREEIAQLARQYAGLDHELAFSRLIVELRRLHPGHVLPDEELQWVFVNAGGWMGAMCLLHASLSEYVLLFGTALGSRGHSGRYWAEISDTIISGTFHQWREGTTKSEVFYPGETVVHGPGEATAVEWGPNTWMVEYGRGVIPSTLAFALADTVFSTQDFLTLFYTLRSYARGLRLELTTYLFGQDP
# Sequence of norepinephrine transporter (P23975 whole entry, species assumed): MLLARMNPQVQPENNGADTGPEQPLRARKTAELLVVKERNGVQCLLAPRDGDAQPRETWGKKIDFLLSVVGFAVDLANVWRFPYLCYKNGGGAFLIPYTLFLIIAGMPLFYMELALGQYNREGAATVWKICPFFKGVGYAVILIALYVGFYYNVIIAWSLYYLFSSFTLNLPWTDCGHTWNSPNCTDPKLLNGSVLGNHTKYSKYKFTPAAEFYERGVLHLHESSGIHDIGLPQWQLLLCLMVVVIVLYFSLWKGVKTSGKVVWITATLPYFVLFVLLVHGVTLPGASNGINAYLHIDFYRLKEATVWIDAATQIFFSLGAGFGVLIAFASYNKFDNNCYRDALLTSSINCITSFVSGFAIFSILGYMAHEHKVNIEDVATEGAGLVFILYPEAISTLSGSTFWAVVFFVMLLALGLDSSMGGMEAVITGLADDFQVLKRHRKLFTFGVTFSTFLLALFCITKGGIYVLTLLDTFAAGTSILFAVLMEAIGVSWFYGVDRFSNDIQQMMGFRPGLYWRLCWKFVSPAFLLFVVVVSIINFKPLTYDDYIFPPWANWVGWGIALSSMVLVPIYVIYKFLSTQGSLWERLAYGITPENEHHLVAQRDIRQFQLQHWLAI
Compound,effect on dextromethorphan in the blood [1],Ki (uptake of norepinephrine),Ki [2],Ki [3],Ki (sigma-1)
C=C[C@H]1C[N@@]2CC[C@H]1C[C@@H]2[C@@H](O)c1ccnc2ccc(OC)cc12 [Quinidine],greatly increases the quantity of dextromethorphan circulating in the blood,–,–,–,–
"COc1ccc2c(c1)[C@]13CCCC[C@@H]1[C@H](C2)N(C)CC3 [DM, (+)-3-methoxy-17-methyl-(9α,13α,14α)-morphinan]",–,0.24 µM,1.5 µM,13 µM,0.2 µM
